One experiment has as its target EGFR L858R/T790M (Homo sapiens (Human), UniProt P00533, L858R/T790M). Put plainly: TR-FRET assay for ERBB kinases. The format is biochemical. As to conditions: geometric mean if measured more than once. On the procedure: (§1) TR-FRET Assay for ERBB Kinases
(§2) All compounds and PROTACs were serially diluted in three-fold increments using 100% DMSO, followed by an intermediate 10-fold dilution using Buffer A (50 mM HEPES, pH 7.5, 50 mM NaCl, 10 mM MgCl2, 1 mM DTT, and 0.1% Pluronic F-68). […] Next, 10 uL of protein kinase in Buffer A was added to each well of the assay plate and pre-incubated with compound for 10 minutes. Kinase reactions were then initiated by addition of 5 uL substrate mix containing 3 mM ATP and 30 uM fluorescein-labeled Poly-GluTyr (Thermo Fisher, #PV3610) in Buffer A and allowed to proceed for 10 minutes at room temperature. Reactions were quenched by addition of a 5 uL mixture containing 5 nM LanthaScreen® Tb-pY20 Antibody (Thermo Fisher, #PV3552) and 40 mM EDTA in Buffer A. Assay plates were then read using a Synergy2 (Biotek Instruments, Winooski, Vt.) via excitation thru a 340/20 nm bandpass filter and emission collected thru 490/10 nm (donor) and 520/25 nm (acceptor) bandpass filters.
A general note: TR-FRET usually uses a lanthanide donor and a delayed reading to cut background.

Another experiment deals with EGFR L858R/T790M/C797S (Homo sapiens (Human), UniProt P00533, C797S/L858R/T790M). Put plainly: TR-FRET assay for ERBB kinases. In kind it is biochemical. Particulars: geometric mean if measured more than once. The procedure:
as §1, §2

For the next experiment, the target named is EGFR WT (Homo sapiens (Human), UniProt P00533). Put plainly: TR-FRET assay for ERBB kinases. In kind it is biochemical. As to conditions: geometric mean if measured more than once. The procedure:
as §1, §2

In the next experiment the target is EGFR Exon20NPG (Homo sapiens (Human), UniProt P00533, INS770NPG). Put plainly: TR-FRET assay for ERBB kinases. The format is biochemical. As to conditions: geometric mean if measured more than once. The procedure:
as §1
All compounds and PROTACs were serially diluted in three-fold increments using 100% DMSO, followed by an intermediate 10-fold dilution using Buffer A (50 mM HEPES, pH 7.5, 50 mM NaCl, 10 mM MgCl2, 1 mM DTT, and 0.1% Pluronic F-68). Two microliters of serially diluted compound or PROTAC were then transferred to black 384-well Proxiplates (PerkinElmer, #6008260) using an Integra Viaflo96. Next, 10 uL of protein kinase in Buffer A was added to each well of the assay plate and pre-incubated with compound for 10 minutes. Kinase reactions were then initiated by addition of 5 uL substrate mix containing 3 mM ATP and 30 uM fluorescein-labeled Poly-GluTyr (Thermo Fisher, #PV3610) in Buffer A and allowed to proceed for 10 minutes at room temperature. Reactions were quenched by addition of a 5 uL mixture containing 5 nM LanthaScreen® Tb-pY20 Antibody (Thermo Fisher, #PV3552) and 40 mM EDTA in Buffer A. Assay plates were then read using a Synergy2 (Biotek Instruments, Winooski, Vt.) via excitation thru a 340/20 nm bandpass filter and emission collected thru 490/10 nm (donor) and 520/25 nm (acceptor) bandpass filters.

The target of experiment [1] is EGFR L858R/T790M double mutant (H1975) (Homo sapiens (Human), UniProt P00533, L858R/T790M). Put plainly: EGFR protein degradation assay (Western blot). In kind it is cell-based. Particulars: 72 hours, 300 nM to 10 nM. On the procedure:
EGFR Protein Degradation assay
Cells expressing the appropriate form of EGFR were seeded in 6-well plates (300,000 cells per well) and allowed to adhere to the plate overnight. […] To harvest cells, media was removed and cells were washed once with ice-cold phosphate-buffered saline (PBS) prior to the addition of 400 μl lysis buffer (Cell Signaling Technology) supplemented with a protease inhibitor cocktail (Thermo Scientific). Cells were scraped from the plate and the cell lysate transferred to an Eppendorf tube and then clarified by a single spin at 10 000 rpm for 10 minutes. The protein concentration of each lysate was determined (BCA kit, Thermo Scientific) prior to the addition of loading buffer (Invitrogen) and reducing agent (Invitrogen). 10 μg protein of each lysate was loaded on an SDS/PAGE gel and run at 165V for 2 hours. Following transfer to a PVDF membrane (iBlot2, Thermo Fisher Scientific), the membrane was blocked in Tris-buffered saline containing 0.1% Tween-20 (TBS-T) and supplemented with 5% powdered milk for 1 hour. Membranes were then probed with EGFR and tubulin (loaded control) primary antibodies in TBS-T containing 3% bovine serum albumin (BSA) overnight at 4° C. Membranes were washed thrice with TBS-T before incubation with secondary antibody in TBS-T containing 3% bovine serum albumin (BSA) and incubated for 1 hour at room temperature. Following 3 further washes with TBS, membrane proteins of interest were detected by enzyme-linked chemiluminescence (ECL) using a Chemidoc (Bio-Rad).
For orientation: A western blot detects proteins with antibodies after separation by electrophoresis.

Chain of EGFR L858R/T790M/C797S (P00533 25-1210 T790M/C797S/L858R): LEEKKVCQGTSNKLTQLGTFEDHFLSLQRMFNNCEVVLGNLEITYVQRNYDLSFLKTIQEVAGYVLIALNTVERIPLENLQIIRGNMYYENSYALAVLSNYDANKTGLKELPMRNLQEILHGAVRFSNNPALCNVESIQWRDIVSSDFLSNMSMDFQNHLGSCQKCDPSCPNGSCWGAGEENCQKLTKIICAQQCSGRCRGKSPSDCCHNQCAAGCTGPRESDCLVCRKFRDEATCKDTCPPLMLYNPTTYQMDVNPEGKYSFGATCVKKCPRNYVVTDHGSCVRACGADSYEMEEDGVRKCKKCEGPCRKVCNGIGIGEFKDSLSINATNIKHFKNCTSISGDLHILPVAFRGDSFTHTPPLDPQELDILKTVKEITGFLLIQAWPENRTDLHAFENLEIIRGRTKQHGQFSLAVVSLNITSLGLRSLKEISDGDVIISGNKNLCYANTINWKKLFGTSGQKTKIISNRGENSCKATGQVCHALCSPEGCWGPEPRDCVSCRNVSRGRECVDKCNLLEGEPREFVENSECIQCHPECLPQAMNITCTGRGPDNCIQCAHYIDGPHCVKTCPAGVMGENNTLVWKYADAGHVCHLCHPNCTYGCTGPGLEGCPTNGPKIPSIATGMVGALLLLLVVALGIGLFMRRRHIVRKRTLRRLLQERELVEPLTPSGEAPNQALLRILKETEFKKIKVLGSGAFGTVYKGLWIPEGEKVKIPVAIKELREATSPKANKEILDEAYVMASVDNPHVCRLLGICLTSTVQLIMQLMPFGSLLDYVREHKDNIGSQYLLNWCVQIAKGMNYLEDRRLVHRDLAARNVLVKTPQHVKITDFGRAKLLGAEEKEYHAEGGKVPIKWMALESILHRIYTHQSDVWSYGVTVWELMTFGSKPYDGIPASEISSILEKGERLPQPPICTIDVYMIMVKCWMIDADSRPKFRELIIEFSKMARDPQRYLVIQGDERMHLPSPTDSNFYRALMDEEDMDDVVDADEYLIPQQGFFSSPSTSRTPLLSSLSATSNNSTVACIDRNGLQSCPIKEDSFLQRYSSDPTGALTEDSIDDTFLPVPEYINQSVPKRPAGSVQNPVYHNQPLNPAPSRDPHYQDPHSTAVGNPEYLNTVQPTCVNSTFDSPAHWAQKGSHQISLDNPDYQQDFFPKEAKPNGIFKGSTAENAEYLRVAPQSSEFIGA
Chain of EGFR L858R/T790M double mutant (H1975) (P00533 25-1210 T790M/L858R): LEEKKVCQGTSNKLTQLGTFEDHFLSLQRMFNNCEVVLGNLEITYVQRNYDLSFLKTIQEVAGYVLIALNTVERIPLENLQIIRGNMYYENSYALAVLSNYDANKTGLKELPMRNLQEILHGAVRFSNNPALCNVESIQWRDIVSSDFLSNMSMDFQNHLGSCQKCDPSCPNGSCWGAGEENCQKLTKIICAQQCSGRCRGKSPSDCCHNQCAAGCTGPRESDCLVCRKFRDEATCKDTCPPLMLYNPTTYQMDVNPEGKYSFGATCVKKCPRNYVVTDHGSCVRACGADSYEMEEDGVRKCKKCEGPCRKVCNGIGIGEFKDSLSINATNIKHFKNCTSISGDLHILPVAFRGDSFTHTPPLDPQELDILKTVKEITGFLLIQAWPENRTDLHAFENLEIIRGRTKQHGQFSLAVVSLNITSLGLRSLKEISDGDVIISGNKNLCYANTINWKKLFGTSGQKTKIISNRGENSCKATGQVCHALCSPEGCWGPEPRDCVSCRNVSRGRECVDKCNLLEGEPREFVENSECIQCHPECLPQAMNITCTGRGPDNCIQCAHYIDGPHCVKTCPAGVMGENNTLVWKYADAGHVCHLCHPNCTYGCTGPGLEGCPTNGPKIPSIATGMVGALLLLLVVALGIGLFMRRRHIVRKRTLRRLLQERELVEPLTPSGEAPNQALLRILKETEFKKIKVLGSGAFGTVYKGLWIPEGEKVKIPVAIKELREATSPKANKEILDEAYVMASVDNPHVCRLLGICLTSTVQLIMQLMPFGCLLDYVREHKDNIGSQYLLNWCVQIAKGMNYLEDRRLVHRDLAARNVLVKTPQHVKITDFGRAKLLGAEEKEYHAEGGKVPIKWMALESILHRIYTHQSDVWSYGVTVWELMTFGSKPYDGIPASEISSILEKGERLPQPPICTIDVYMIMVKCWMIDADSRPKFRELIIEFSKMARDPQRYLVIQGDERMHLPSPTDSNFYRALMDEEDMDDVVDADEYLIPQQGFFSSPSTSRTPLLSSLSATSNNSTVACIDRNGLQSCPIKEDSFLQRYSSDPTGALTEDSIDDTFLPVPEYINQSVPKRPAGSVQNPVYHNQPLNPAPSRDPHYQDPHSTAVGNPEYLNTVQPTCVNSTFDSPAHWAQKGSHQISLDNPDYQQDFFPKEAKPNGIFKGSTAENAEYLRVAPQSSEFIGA
Chain of EGFR L858R/T790M (P00533 25-1210 T790M/L858R): as above
Chain of EGFR Exon20NPG (P00533 other isoform, or with tags, fused parts or gaps del 1-694/ins NPG behind 770 limits assumed): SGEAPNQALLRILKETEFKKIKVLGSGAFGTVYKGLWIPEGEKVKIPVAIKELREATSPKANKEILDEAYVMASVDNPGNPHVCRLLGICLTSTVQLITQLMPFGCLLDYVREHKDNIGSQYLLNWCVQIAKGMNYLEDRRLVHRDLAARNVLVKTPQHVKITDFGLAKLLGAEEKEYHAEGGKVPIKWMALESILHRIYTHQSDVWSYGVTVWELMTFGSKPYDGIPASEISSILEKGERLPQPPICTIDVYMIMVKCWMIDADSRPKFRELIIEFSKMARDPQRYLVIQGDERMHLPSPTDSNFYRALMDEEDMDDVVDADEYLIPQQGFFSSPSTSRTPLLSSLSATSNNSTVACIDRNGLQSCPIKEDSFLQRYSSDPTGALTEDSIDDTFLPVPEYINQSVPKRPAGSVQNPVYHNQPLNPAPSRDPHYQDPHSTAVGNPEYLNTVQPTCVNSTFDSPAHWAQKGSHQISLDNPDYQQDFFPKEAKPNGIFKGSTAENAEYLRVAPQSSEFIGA

Broadly, the IC50 is the concentration needed to halve the response being measured. As for `O=C1CCC(N2C(=O)c3ccc(OCCN4CCN(CCCC#Cc5cccc6c5C(=O)N(C(C(=O)Nc5nccs5)c5cc(F)ccc5O)C6)CC4)cc3C2=O)C(=O)N1` (stereo not drawn) [compound 94], the 50% inhibitory concentration (IC50) on EGFR L858R/T790M amounted to 6 µM; on EGFR L858R/T790M/C797S it was 1.8 µM; at EGFR WT, 2.1 µM; on EGFR Exon20NPG, 1.5 µM. The “EGFR protein remaining, EGFR L858R/T790M double mutant” value (from here on “EGFR protein remaining”) in experiment [1] is given as “C (>80% EGFR protein remaining after 72 hours of incubation with the test compound at a concentration of 300 nM)”.
Consider `Cc1ncsc1-c1ccc([C@H](C)NC(=O)[C@H]2C[C@H](O)CN2C(=O)[C@@H](NC(=O)COCCCOCCCN2CCOC3(CCN(c4nccc(Nc5cc6c(cn5)nc(C)n6C(C)C)n4)CC3)C2)C(C)(C)C)cc1` [compound 285], for which the results for the IC50 at EGFR L858R/T790M, at EGFR L858R/T790M/C797S and at EGFR WT were 35 µM, 17 µM and 26 µM, respectively.
Turning to `Cc1ncsc1-c1ccc([C@H](C)NC(=O)[C@@H]2C[C@@H](O)CN2C(=O)[C@@H](NC(=O)COCCCOCCCN2CCC3(CC2)CCN(c2nccc(Nc4cc5c(cn4)nc(C)n5C(C)C)n2)CC3)C(C)(C)C)cc1` [Example 282, (2S,4R)-4-hydroxy-1-((S)-2-(2-(3-(3-(9-(4-((1-isopropyl-2-methyl-1H-imidazo[4,5-c]pyridin-6-yl)amino)pyrimidin-2-yl)-3,9-diazaspiro[5.5]undecan-3-yl)propoxy)propoxy)acetamido)-3,3-dimethylbutanoyl)-N—((S)-1-(4-(4-methylthiazol-5-yl)phenyl)ethyl)pyrrolidine-2-carboxamide], the IC50 is greater than 30 µM on EGFR L858R/T790M, 23 µM at EGFR L858R/T790M/C797S, 12 µM on EGFR WT and greater than 30 µM on EGFR Exon20NPG.
Consider `COC1CCN(c2nccc(Nc3cc4c(cn3)nc(COCCOCCN3CCN(CCOc5ccc6c(c5)C(=O)N(C5CCC(=O)NC5=O)C6=O)CC3)n4C(C)C)n2)CC1` (stereo not drawn) [compound 88], for which the 50% inhibitory concentration (IC50) on EGFR L858R/T790M is 11 µM; on EGFR L858R/T790M/C797S, 9.4 µM; at EGFR WT, greater than 30 µM; at EGFR Exon20NPG, 3.1 µM. The “EGFR protein remaining” value in experiment [1] was “C (>80% EGFR protein remaining after 72 hours of incubation with the test compound at a concentration of 300 nM)”.
The matching figures for `Cc1ncsc1-c1ccc(CNC(=O)[C@@H]2C[C@@H](O)CN2C(=O)C(C(C)C)N2Cc3ccccc3C2=O)c(OCCCCOc2ccc(-c3nccc(Nc4cc5c(cn4)nc(C)n5C(C)C)n3)cc2)c1` (stereo partly drawn) [compound 277]: greater than 30 µM, greater than 30 µM, greater than 30 µM, greater than 30 µM and “C (>80% EGFR protein remaining after 72 hours of incubation with the test compound at a concentration of 300 nM)”.
Regarding `Cc1ncsc1-c1ccc([C@H](C)NC(=O)[C@H]2C[C@H](O)CN2C(=O)[C@@H](NC(=O)COCCOCCOc2ccc(-c3nccc(Nc4cc5c(cn4)nc(C)n5C(C)C)n3)cc2)C(C)(C)C)cc1` [Example 276, (2R,4S)-4-hydroxy-1-((S)-2-(2-(2-(2-(4-(4-((1-isopropyl-2-methyl-1H-imidazo[4,5-c]pyridin-6-yl)amino)pyrimidin-2-yl)phenoxy)ethoxy)ethoxy)acetamido)-3,3-dimethylbutanoyl)-N—((S)-1-(4-(4-methylthiazol-5-yl)phenyl)ethyl)pyrrolidine-2-carboxamide], the concentration for half-maximal inhibition (IC50) at EGFR L858R/T790M is 23 µM; on EGFR L858R/T790M/C797S, 29 µM; at EGFR WT, 20 µM; on EGFR Exon20NPG, greater than 30 µM. Moreover, the “EGFR protein remaining” value in experiment [1] is given as “C (>80% EGFR protein remaining after 72 hours of incubation with the test compound at a concentration of 300 nM)”.
Regarding `COC1CCN(c2nccc(Nc3cc4c(cn3)nc(COCCN3CCN(c5ccc6c(c5)C(=O)N(C5CCC(=O)NC5=O)C6=O)CC3)n4C(C)(C)C)n2)CC1` (stereo not drawn) [compound 287], the half-inhibitory concentration (IC50) at EGFR L858R/T790M was determined as 0.074 µM; on EGFR L858R/T790M/C797S, 0.016 µM; at EGFR WT, 6.7 µM.
Consider `COC1CCN(c2nccc(Nc3cc4c(cn3)nc(-c3ccc(CN5CCN(CCOc6ccc7c(c6)C(=O)N(C6CCC(=O)NC6=O)C7=O)CC5)cc3)n4C(C)C)n2)CC1` (stereo not drawn) [Example 286, 2-(2,6-dioxopiperidin-3-yl)-5-(2-(4-(4-(1-isopropyl-6-((2-(4-methoxypiperidin-1-yl)pyrimidin-4-yl)amino)-1H-imidazo[4,5-c]pyridin-2-yl)benzyl)piperazin-1-yl)ethoxy)isoindoline-1,3-dione], for which the results for the 50% inhibitory concentration (IC50) at EGFR L858R/T790M, on EGFR L858R/T790M/C797S and on EGFR WT were 0.48 µM, 0.17 µM and 7.3 µM, respectively.
The corresponding values for `COC1(CCN2CCN(CCCOCCCOCC(=O)N[C@H](C(=O)N3C[C@H](O)C[C@H]3C(=O)N[C@@H](C)c3ccc(-c4scnc4C)cc3)C(C)(C)C)CC2)CCN(c2nccc(Nc3cc4c(cn3)nc(C)n4C(C)C)n2)CC1` [Example 292, (2S,4R)-4-hydroxy-1-((S)-2-(2-(3-(3-(4-(2-(1-(4-((1-isopropyl-2-methyl-1H-imidazo[4,5-c]pyridin-6-yl)amino)pyrimidin-2-yl)-4-methoxypiperidin-4-yl)ethyl)piperazin-1-yl)propoxy)propoxy)acetamido)-3,3-dimethylbutanoyl)-N—((S)-1-(4-(4-methylthiazol-5-yl)phenyl)ethyl)pyrrolidine-2-carboxamide] are 19 µM, 11 µM and 39 µM.
For the compound `Cc1ncsc1-c1ccc(CNC(=O)[C@@H]2C[C@@H](O)CN2C(=O)C(C(C)C)N2Cc3ccccc3C2=O)c(OCCOCCOCCOCCOc2ccc(-c3nccc(Nc4cc5c(cn4)nc(C)n5C(C)C)n3)cc2)c1` (stereo partly drawn) [compound 281], the IC50 on EGFR L858R/T790M is greater than 30 µM; on EGFR L858R/T790M/C797S, 15 µM; on EGFR WT, 12 µM; at EGFR Exon20NPG it was greater than 30 µM.
Take `Cc1ncsc1-c1ccc([C@H](C)NC(=O)[C@H]2C[C@H](O)CN2C(=O)[C@@H](NC(=O)COCCOCCOCCOCCOc2ccc(-c3nccc(Nc4cc5c(cn4)nc(C)n5C(C)C)n3)cc2)C(C)(C)C)cc1` [compound 279]: the IC50 at EGFR L858R/T790M was 29 µM; at EGFR L858R/T790M/C797S, greater than 30 µM; on EGFR WT it was 16 µM; on EGFR Exon20NPG, greater than 30 µM.
Consider `O=C1CCC(N2C(=O)c3ccc(N4CCN(CC5CCN(CC#Cc6cccc7c6C(=O)N(C(C(=O)Nc6nccs6)c6cc(F)ccc6O)C7)CC5)CC4)cc3C2=O)C(=O)N1` (stereo not drawn) [compound 293], for which the figures for the half-inhibitory concentration (IC50) on EGFR L858R/T790M, on EGFR L858R/T790M/C797S and on EGFR WT were 4.2 µM, 0.64 µM and 1.7 µM, respectively.
The corresponding values for `COC1CCN(c2nccc(Nc3cc4[nH]c(COCCN5CCN(c6ccc7c(c6)C(=O)N(C6CCC(=O)NC6=O)C7=O)CC5)nc4cn3)n2)CC1` (stereo not drawn) [compound 288] are 6.9 µM, 2 µM and 5.9 µM.
Take `Cc1ncsc1-c1ccc([C@H](C)NC(=O)[C@H]2C[C@H](O)CN2C(=O)[C@@H](NC(=O)COCCOCCOCCOc2ccc(-c3nccc(Nc4cc5c(cn4)nc(C)n5C(C)C)n3)cc2)C(C)(C)C)cc1` [compound 278]: the concentration for half-maximal inhibition (IC50) on EGFR L858R/T790M was greater than 30 µM; at EGFR L858R/T790M/C797S, greater than 30 µM; on EGFR WT, 30 µM; on EGFR Exon20NPG, greater than 30 µM.

The values are drawn from US10994015B2, “EGFR proteolysis targeting chimeric molecules and associated methods of use” (Arvinas Operations, Inc., priority 2016, dated 2021).
